What was measured:
[1] = test system: HBV replication in HepAD38 cells; test: Anti-HBV replication assay in HepAD38 cells (QPCR of extracellular HBV DNA); type: cell-based, HBV (genotype D, serotype ayw); details: Hepatitis B virus, 168 h, 7 days incubation, extracellular HBV DNA by QPCR, read-out: Anti-HBV EC50
How it was run: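 EC50 values reflect 50% reduction of extracellular HBV DNA, measured by QPCR after 7-day treatment of tetracycline-deprived HepAD38 cells with compound […].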

[2] = In vitro cytotoxicity assay (MTT cell viability) in HepG2 cells; type: cell-based, human; details: human
How it was run: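 HepG2 seeded overnight, then 7-day compound exposure (30 μM–1.0 nM, half-log steps), 37 °C. MTT 3-4 h, DMSO solubilization, A492. % of vehicle → CC50, 4-PL fit.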

Row | SMILES | EC50 [1] | CC50 at 7 days [2]
1 | Cc1c(C(=O)Nc2cccc(C(F)F)c2)c(C)n(C)c1C(=O)C(=O)N[C@]1(C)CC[C@@H](O)CC1 [Example 700, N-(3-(difluoromethyl)phenyl)-5-(2-(((1r,4r)-4-hydroxy-1-methylcyclohexyl)amino)-2-oxoacetyl)-1,2,4-rimethyl-1H-pyrrole-3-carboxamide] | < 50 nM | > 30000 nM
2 | Cc1cc(NC(=O)c2c(Cl)c(C(=O)C(=O)NCc3cnc(N)s3)n3c2CCC3)ccc1F [Example 552, 5-(2-(((2-aminothiazol-5-yl)methyl)amino)-2-oxoacetyl)-6-chloro-N-(4-fluoro-3-methylphenyl)-2,3-dihydro-1H-pyrrolizine-7-carboxamide] | < 50 nM | 5000 to 30000 nM
3 | Cc1cc(NC(=O)c2c(C)c(C(=O)C(=O)N[C@H]3C[C@@H](O)C3(C)C)n(C)c2C)ccc1F [Example 302, N-(4-fluoro-3-methylphenyl)-5-(2-(((1S,3R)-3-hydroxy-2,2-dimethylcyclobutyl)amino)-2-oxoacetyl)-1,2,4-trimethyl-1H-pyrrole-3-carboxamide] | < 50 nM | > 30000 nM
4 | Cc1cc(NC(=O)c2c(C)c(C(=O)C(=O)N[C@H]3CNC(=O)C3(C)C)n(C)c2C)ccc1F [Example 621, (R)-5-(2-((4,4-dimethyl-5-oxopyrrolidin-3-yl)amino)-2-oxoacetyl)-N-(4-fluoro-3-methylphenyl)-1,2,4-trimethyl-1H-pyrrole-3-carboxamide] | < 50 nM | > 30000 nM
5 | Cc1cc(Cl)cc(NC(=O)c2c(C)c(C(=O)C(=O)N[C@H]3CC[C@@H](O)CC3)n(C)c2C)c1 [Example 685, N-(3-chloro-5-methylphenyl)-5-(2-(((1s,4s)-4-hydroxycyclohexyl)amino)-2-oxoacetyl)-1,2,4-trimethyl-1H-pyrrole-3-carboxamide] | < 50 nM | > 30000 nM
6 | Cc1cc(NC(=O)c2c(C)c(C(=O)C(=O)NC3(C)CCN(C(=O)c4cn[nH]c4)CC3)n(C)c2C)ccc1F [Example 709, N-(4-fluoro-3-methylphenyl)-1,2,4-trimethyl-5-(2-((4-methyl-1-(1H-pyrazole-4-carbonyl)piperidin-4-yl)amino)-2-oxoacetyl)-1H-pyrrole-3-carboxamide] | < 50 nM | > 30000 nM
7 | Cc1cc(NC(=O)c2c(C)c(C(=O)C(=O)N[C@@H](C(N)=O)C3CCCCC3)n(C)c2C)ccc1F [Example 102, (R)-5-(2-((2-amino-1-cyclohexyl-2-oxoethyl)amino)-2-oxoacetyl)-N-(4-fluoro-3-methylphenyl)-1,2,4-trimethyl-1H-pyrrole-3-carboxamide] | < 50 nM | 500 to 4990 nM
8 | Cc1cc(NC(=O)c2c(C)c(C(=O)C(=O)NC3(C(F)(F)F)CC(O)C3)n(C)c2C)ccc1F (stereo not shown) [Example 288, N-(4-fluoro-3-methylphenyl)-5-(2-((3-hydroxy-1-(trifluoromethyl)cyclobutyl)amino)-2-oxoacetyl)-1,2,4-trimethyl-1H-pyrrole-3-carboxamide] | < 50 nM | > 30000 nM
9 | Cc1cc(NC(=O)c2c(C)c(C(=O)C(=O)N[C@H]3CC[C@@](C)(O)CC3)n(C)c2C)ccc1F [Example 214, N-(4-fluoro-3-methylphenyl)-5-(2-(((1s,4s)-4-hydroxy-4-methylcyclohexyl)amino)-2-oxoacetyl)-1,2,4-trimethyl-1H-pyrrole-3-carboxamide] | < 50 nM | > 30000 nM
10 | CC(C)(O)CNC(=O)C(=O)c1c(Cl)c(C(=O)Nc2ccc(F)c(Cl)c2)c2n1CCCC2 [Example 532, 2-chloro-N-(3-chloro-4-fluorophenyl)-3-(2-((2-hydroxy-2-methylpropyl)amino)-2-oxoacetyl)-5,6,7,8-tetrahydroindolizine-1-carboxamide] | 500 to 1000 nM | 500 to 4990 nM
11 | Cc1cc(NC(=O)c2c(Cl)c(C(=O)C(=O)NC(C)(C)C(F)(F)F)n3c2CCC3)cnc1F [Example 573, 6-chloro-N-(6-fluoro-5-methylpyridin-3-yl)-5-(2-oxo-2-((1,1,1-trifluoro-2-methylpropan-2-yl)amino)acetyl)-2,3-dihydro-1H-pyrrolizine-7-carboxamide] | 50 to 499 nM | > 30000 nM
12 | Cc1cc(NC(=O)c2c(C)c(C(=O)C(=O)NC3CCS(=O)(=O)CC3)n(C)c2C)ccc1F [Example 249, 5-(2-((1,1-dioxidotetrahydro-2H-thiopyran-4-yl)amino)-2-oxoacetyl)-N-(4-fluoro-3-methylphenyl)-1,2,4-trimethyl-1H-pyrrole-3-carboxamide] | < 50 nM | 5000 to 30000 nM
13 | Cc1cc(NC(=O)c2c(C)c(C(=O)C(=O)NCC(C)(C)O)n(CCF)c2C)ccc1F [Example 178, N-(4-fluoro-3-methylphenyl)-1-(2-fluoroethyl)-5-(2-((2-hydroxy-2-methylpropyl)amino)-2-oxoacetyl)-2,4-dimethyl-1H-pyrrole-3-carboxamide] | 50 to 499 nM | 5000 to 30000 nM
14 | COc1c(C(=O)Nc2ccc(F)c(F)c2)c(C)n(C)c1C(=O)C(=O)NC1(C(F)(F)F)CCC1 [Example 378, N-(3,4-difluorophenyl)-4-methoxy-1,2-dimethyl-5-(2-oxo-2-((1-(trifluoromethyl)cyclobutyl)amino)acetyl)-1H-pyrrole-3-carboxamide] | < 50 nM | > 30000 nM
15 | Cc1cc(NC(=O)c2c(C)c(C(=O)C(=O)Nc3ccc(F)nc3)n(C)c2C)ccc1F [Example 212, N-(4-fluoro-3-methylphenyl)-5-(2-((6-fluoropyridin-3-yl)amino)-2-oxoacetyl)-1,2,4-trimethyl-1H-pyrrole-3-carboxamide] | < 50 nM | 5000 to 30000 nM
16 | Cc1cc(NC(=O)c2c(C)c(C(=O)C(=O)NC(C)(C)CO)n(C)c2C)cnc1F [Example 161, N-(6-fluoro-5-methylpyridin-3-yl)-5-(2-((1-hydroxy-2-methylpropan-2-yl)amino)-2-oxoacetyl)-1,2,4-trimethyl-1H-pyrrole-3-carboxamide] | < 50 nM | > 30000 nM
17 | CO[C@H]1CC[C@H](NC(=O)C(=O)c2c(C)c(C(=O)Nc3ccc(F)c(C)c3)c(C)n2C)CC1 [Example 269, N-(4-fluoro-3-methylphenyl)-5-(2-(((1r,4r)-4-methoxycyclohexyl)amino)-2-oxoacetyl)-1,2,4-trimethyl-1H-pyrrole-3-carboxamide] | < 50 nM | 5000 to 30000 nM
18 | Cc1cc(NC(=O)c2c(C)c(C(=O)C(=O)N[C@@H]3CC[C@@H](O)C3)n(C)c2C)ccc1F [Example 127, N-(4-fluoro-3-methylphenyl)-5-(2-(((1R,3R)-3-hydroxycyclopentyl)amino)-2-oxoacetyl)-1,2,4-trimethyl-1H-pyrrole-3-carboxamide] | < 50 nM | > 30000 nM
19 | Cc1cc(NC(=O)c2c(C)c(C(=O)C(=O)NC3(c4noc(C5CC5)n4)CCCC3)n(C)c2C)ccc1F [Example 637, 5-(2-((1-(5-cyclopropyl-1,2,4-oxadiazol-3-yl)cyclopentyl)amino)-2-oxoacetyl)-N-(4-fluoro-3-methylphenyl)-1,2,4-trimetthyl-1H-pyrrole-3-carboxamide] | < 50 nM | > 30000 nM
20 | Cc1cc(NC(=O)c2c(C)c(C(=O)C(=O)N[C@@H]3CCC[C@@H](O)C3)n(C)c2C)ccc1F [Example 287, N-(4-fluoro-3-methylphenyl)-5-(2-(((1R,3R)-3-hydroxycyclohexyl)amino)-2-oxoacetyl)-1,2,4-trimethyl-1H-pyrrole-3-carboxamide] | < 50 nM | > 30000 nM
21 | CC[C@@H](CO)NC(=O)C(=O)c1c(C)c(C(=O)Nc2ccc(F)c(C)c2)c(C)n1C [Example 139, (S)-N-(4-fluoro-3-methylphenyl)-5-(2-((1-hydroxybutan-2-yl)amino)-2-oxoacetyl)-1,2,4-trimethyl-1H-pyrrole-3-carboxamide] | < 50 nM | > 30000 nM
22 | Cc1noc([C@H](C)NC(=O)C(=O)c2c(Cl)c(C(=O)Nc3cnc(F)c(C)c3)c3n2CCCC3)n1 [Example 521, (S)-2-chloro-N-(6-fluoro-5-methylpyridin-3-yl)-3-(2-((1-(3-methyl-1,2,4-oxadiazol-5-yl)ethyl)amino)-2-oxoacetyl)-5,6,7,8-tetrahydroindolizine-1-carboxamide] | > 1000 nM | > 30000 nM
23 | Cc1cc(NC(=O)c2c(C)c(C(=O)C(=O)N[C@H]3CC[C@H](O)CC3)n(C)c2C)cnc1F [Example 175, N-(6-fluoro-5-methylpyridin-3-yl)-5-(2-(((1r,4r)-4-hydroxycyclohexyl)amino)-2-oxoacetyl)-1,2,4-trimethyl-1H-pyrrole-3-carboxamide] | 50 to 499 nM | > 30000 nM
24 | Cc1cc(NC(=O)c2c(C)c(C(=O)C(=O)NC(C)(C)c3noc(CN(C)C)n3)n(C)c2C)ccc1F [Example 154, 5-(2-((2-(5-((dimethylamino)methyl)-1,2,4-oxadiazol-3-yl)propan-2-yl)amino)-2-oxoacetyl)-N-(4-fluoro-3-methylphenyl)-1,2,4-trimethyl-1H-pyrrole-3-carboxamide] | < 50 nM | > 30000 nM
25 | Cc1cc(NC(=O)c2c(C)c(C(=O)C(=O)NC(C)(C)CO)n(CCF)c2C)ccc1F [Example 116, N-(4-fluoro-3-methylphenyl)-1-(2-fluoroethyl)-5-(2-((1-hydroxy-2-methylpropan-2-yl)amino)-2-oxoacetyl)-2,4-dimethyl-1H-pyrrole-3-carboxamide] | < 50 nM | > 30000 nM
26 | Cc1cc(NC(=O)c2c(C)c(C(=O)C(=O)N[C@H]3CCC[C@H]3O)n3c2CCCC3)ccc1F [Example 440, N-(4-fluoro-3-methylphenyl)-3-(2-(((1S,2R)-2-hydroxycyclopentyl)amino)-2-oxoacetyl)-2-methyl-5,6,7,8-tetrahydroindolizine-1-carboxamide] | 50 to 499 nM | 5000 to 30000 nM

Reference: patent publication US20190375708A1 (VenatoRx Pharmaceuticals, Inc., priority 2018, published 2019)
